Source: patent publication US8138191B2, “Inhibitor compounds and cancer treatment methods” (Critical Outcome Technologies Inc., priority 2007, dated 2012)
Read-outs that look alike come from different tables or passages of the source.

Legend:
[1] = tested on: DMS114 and SHP-77 human small cell lung cancer lines; assay: Actual outcome of in vitro testing in both reference human SCLC lines; format: cell-based
Experimental: (§1) Briefly, cells were plated in plastic tissue culture plates and grown under standard conditions for each cell line, in carbon dioxide/oxygen atmosphere in plastic tissue culture plates, in the presence of COTI-2 or COTI-219 compounds at 35° C. for 3 days. Control cultures were treated with vehicle minus compound. Cells were counted after 3 days in culture and at a cell density of no more than 80%. The following cell lines, obtained from the National Cancer Institute, were tested: human SCLC cell lines DMS153, DMS114, SHP77; human NSCLC cell lines H226, A460, A560; human breast cancer cell lines T47D, MCF7; human colon cancer cell line HT29; and, human Leukemia cell lines K562, HL60.

DMS153 = assay: in vitro IC50 against cancer cell lines, DMS153; format: cell-based; details: Homo sapiens, DMS-153, 72 h; DMS153, SCLC, 3 days
Experimental: as §1

DMS114 = assay: in vitro IC50 against cancer cell lines, DMS114; format: cell-based; details: Homo sapiens, DMS-114, 72 h; DMS114, SCLC, 3 days
Experimental: as §1

MCF7 = assay: in vitro IC50 against cancer cell lines, MCF7; format: cell-based; details: Homo sapiens, 72 h; MCF7, Breast Cancer, 3 days
Experimental: as §1

HT29 = assay: in vitro IC50 against cancer cell lines, HT29; format: cell-based; details: Homo sapiens, HT-29, 72 h; HT29, Colorectal Cancer, 3 days
Experimental: as §1

HL60 = assay: in vitro IC50 against cancer cell lines, HL60; format: cell-based; details: Homo sapiens, HL-60, 72 h; HL60, Leukemia, 3 days
Experimental: as §1

[2] = tested on: SHP-77 human SCLC cell line tumor xenografts; assay: Nude mouse model of human SCLC, SHP-77 xenografts; format: in vivo; details: IP on alternate days from Day 3, 31 days
Experimental: The nude mouse model of human SCLC was used to evaluate the in vivo efficacy of compounds of the present invention in comparison with several known chemotherapeutic agents. Nude mice were obtained form the National Cancer Institute and the SHP-77 human SCLC cell line was chosen for metastatic tumor xenografts. The control group consisted of 10 animals, each of which were administered bilateral thigh injections of a prescribed volume of tumor cells. There were 6 treatment groups, each containing 5 animals: COTI-2, COTI-4, COTI-219, Taxotere® (docetaxel), Cisplatin® (cis-diamminedichloroplatinum) and Tarceva® (erlotinib) The therapeutic agent was administered by intraperitoneal (IP) injection on alternate days beginning on Day 3 post tumor cell injection. Each animal in a treatment group was administered bilateral thigh injections with the same prescribed volume of tumor cells as the control animals. Treatment continued for 31 days, following which the animals were euthanized and tissues were collected for subsequent analysis.

Standard lab mice = assay: Escalating dose acute toxicity study in mice; details: 4, 8, 16 mg/kg alternate day IP, 28 days
Excerpt: Mice were given alternate day IP injections for 28 days. […] Blood and tissue samples were harvested for histopathology.

[3] = Half-life and liver clearance rate by human liver microsomes (HLM) at 0.5 mg/mL; format: in vitro ADME; details: liver microsomes
Experimental: Sampling was conducted at 1, 20, 40, 60, 120,180 and 240 minutes and the remaining concentration of each compound was evaluated. A half life (T1/2) was calculated at each concentration, along with the rate of clearance by the liver (CL). The CL values compare favorably with published values for other marketed therapeutic agents under identical conditions. The half life of compounds according to the invention is therefore likely to be long enough to permit convenient dosing, while not being so long as to lead to accumulation in patients with potential long term toxicity effects.
The incubation mixture (500 μl) consisted of 100 μl of COTI-2, 150 μl of liver microsomal fractions (1.67 mg/ml rat/human) 35.5 μl of 100 mM phosphate buffer and 214.5 μl co-factor (NADPH, UDPGA, and MgCl2). The COTI-2 compound mixture and co-factor were pre-warmed at 37° C. for 5 min, with shaking at 150 rpm. The reaction was started by adding co-factor to the test compound mixture. The final concentration of the incubation mixture was as follows:
Blank incubation was performed with the co-factors. The sampling time points included 0 and 240 min for the blank sample, and 0, 20, 40, 60, 120, 180, and 240 min for COTI-2. At each time point 50 μl of sample was added to 150 μl of methanol to stop the reaction. The sample plates were centrifuged at 4200 rpm for 15 min and the supernatant was injected into LC-MS/MS for analysis. The percent compound remaining, rate of elimination (Kel), half-life (T1/2), and intrinsic clearance (CL) using standard calculations.

H292 = assay: CellTiter-Blue growth inhibition, single agents and combinations, H292; format: cell-based; details: Homo sapiens, read-out: Mean IC50, single agent
Experimental: (§2) The stock concentration was further diluted to 1 mM and added to a drug plate. […] Following dilution, 2 μl of test agent was transferred to the corresponding wells of a cell-containing 96-well plate with 198 μl of growth media. Tarceva® (erlotinib) was supplied by LC Labs (Woburn, Mass.).
(§3) Viable cell numbers were quantified by the CellTiter-Blue® cell viability assay, which measures the conversion of the indicator dye (resazurin) to resorufin, an indicator of cell viability. Experiments were repeated at least twice with the same concentrations to determine growth inhibitory activity.
(§4) The CI, a numerical value calculated as described in equation A, also provides a quantitative measure of the extent of drug interaction. A CI of less than, equal to, and more than 1 indicates synergy, additivity, and antagonism, respectively. CI=(CAx/ICx,A)+(CB,x/ICx,B) Equation A: Where CA,x and CB,x, are the concentrations of drug A and drug B used in combination to achieve x % drug effect. ICx,A and ICx,B are the concentrations for single agents to achieve the same effect.

HT-29 = assay: CellTiter-Blue growth inhibition, single agents and combinations, HT-29; format: cell-based; details: Homo sapiens, read-out: Mean IC50, single agent
Experimental: as §2
as §3, with “Cells were grown to 70% confluency, trypsinized, counted, and seeded in 96-well flat-bottom plates at a final concentration of 2.5×10^3−5×10^3 cells/well (Day 0). […] Viable” for “Viable”
as §4

SF-268 = assay: IC50 human glioma/astrocytoma cell lines (alamar Blue), SF-268
Experimental: Cell lines were obtained from the Human Tissue Culture Collection (ATCC), grown and maintained under ATCC-specified conditions, and tested to ensure viability and lack of contaminating mycoplasma and common viruses. […] A viability stain (alamar Blue) was added to cells after 4-7 days of drug exposure (approximately 4 doublings of control cells; maximum cell density in wells approximately 80%), and assayed for total cellular metabolic activity (a function of population density of live cells) by absorbance.

[4] = 10 μmol, read-out: In vitro T½ (converted)
[5] = 100 μmol, read-out: In vitro T½ (converted)
[6] = average over 1, 10 and 100 μM, read-out: average half life (converted)
[7] = value before brackets, from 3 in vitro experiments, read-out: In vitro T½

Row | SMILES | Actual outcome of in vitro testing [1] | IC50 (DMS153) [µM] | IC50 (DMS114) [µM] | IC50 (MCF7) [µM] | IC50 (HT29) [µM] | IC50 (HL60) [µM] | average number of tumors per injection site [2] | mean tumor volume [2] | acute toxicity / adverse effects (Standard lab mice) | weight loss (Standard lab mice) | microsomal CLint at 1 µM ([3]; 1 μM) [µL/min/mg] | half-life at 1 µM ([3]; 1 μM, read-out: T1/2) [h] | half-life at 1 µM ([3]; 1 μmol, read-out: In vitro T½) [h] | microsomal CLint at 10 µM ([3]; 10 μM) [µL/min/mg] | half-life at 10 µM ([3]; 10 μM, read-out: T1/2) [h] | half-life at 10 µM [3, 4] [h] | microsomal CLint at 100 µM ([3]; 100 μM) [µL/min/mg] | half-life at 100 µM ([3]; 100 μM, read-out: T1/2) [h] | half-life at 100 µM [3, 5] [h] | half-life [3, 6] [h] | further results
1 | S=C(N/N=C1/CCCc2cccnc21)N1CCN(c2ccccn2)CC1 [COTI-2] | Active | 0.073 | 0.051 | 0.101 | 0.121 | 0.236 | 0.28 | 9.9 mm^3 | No evidence of acute toxicity | None of the drugs produced any weight loss | 12 | 1.7 | 1.7 | 4 | 4.76 | 4.8 | 2 | 11.4 | 11.4 | 6 | half-life [3, 7]: ~6 h; IC50 (H292; NCI-H292, 72 h): 0.0039 µM; IC50 (HT-29; HT-29, 72 h): 0.2 µM; IC50 (SF-268): 0.066 µM
2 | CN1CCN(C(=S)NN=C2c3ncccc3-c3cccnc32)CC1 [COTI-219] | Active | 0.233 | 0.267 | 0.421 | 0.403 | 0.374 | 0.38 | 53+/−28 mm^3 | No evidence of acute toxicity | None of the drugs produced any weight loss | 4.2 | 5.02 | 5 | 3 | 7.01 | 7 | 2.5 | 8.47 | 8.5 | 6.8 | half-life [3, 7]: ~6.8 h; IC50 (H292; NCI-H292, H292, NSCLC, EGFR - WT, 72 h): 0.02 µM; IC50 (HT-29; HT-29, Colon, KRAS - WT, 72 h): 0.0074 µM; IC50 (SF-268): 1.17 µM
